Results taken from patent US12497666B2, “Nucleic acid biomarker and use thereof” (Daiichi Sankyo Co., Ltd., priority 2013, dated 2025).
Read-outs that look alike come from different tables or passages of the source.

Experiments:
Stage IIIb/IV NSCLC [1] = tested on: Stage IIIb/IV NSCLC
Protocol: (§1) In both portions of the study, subjects received 150 mg of erlotinib orally once daily. […] Tumors were to be assessed every 6 weeks (±3 days) up to the first 24 weeks of the study, then every 12 weeks (+7 days) independent of treatment cycle.
Subjects were also administered 150 mg/day erlotinib during the phase 2 trial.

Stage IIIb/IV NSCLC [2] = details: for On-Study Death / Primary Cause of On-Study Death: Adverse Event / Primary Cause of On-Study Death: Disease Progression / Primary Reason for Discontinuing Study Treatment: Death / Primary Reason for Discontinuing Study Treatment: Progressive Disease (Radiographic Progression): Enrolled/Randomized set; for disease control rate / objective response (CR or PR): HRG high
Protocol: as §1
All efficacy analyses were performed on the full analysis set, which includes all subjects in the randomized analysis set who received at least one dose of randomized study medication. The primary efficacy endpoint was PFS. PFS is defined as the time from the date of randomization to the earlier of the dates of the first objective documentation of radiographic disease progression or death due to any cause. A subject who was alive with no Objective documentation of (radiographic) disease progression by the data cut-off date was to be censored at the date of the last evaluable tumor assessment. The key secondary efficacy endpoint, overall survival, was defined as the time from the date of randomization to death due to any cause and was analyzed in the same manner as the primary efficacy endpoint PFS.
Kaplan-Meier curves were generated for PFS and used to calculate medians and 95% CIs for each treatment group. […] Cox's proportional hazards model.
The stratification factors included histology (Adenocarcinoma vs Non-Adenocarcinoma) and best response to prior therapy (CR/PR/SD vs PD).
Unless otherwise indicated, log-rank p-values and HRs for PFS and OS were based on the primary analysis adjusted for the stratification factors at randomization as described above.

[3] = 18 mg/kg patritumab + erlotinib
[4] = Full Analysis Set, 9 mg/kg patritumab + erlotinib
[5] = Full Analysis Set, 18 mg/kg patritumab + erlotinib
[6] = Full Analysis Set, Kaplan-Meier, 9 mg/kg patritumab + erlotinib
[7] = Full Analysis Set, Kaplan-Meier, 18 mg/kg patritumab + erlotinib
[8] = HRG high (dCt<3.9), 9 mg/kg patritumab + erlotinib
[9] = HRG high (dCt<3.9), 18 mg/kg patritumab + erlotinib
[10] = HRG high (dCt<3.9), patritumab doses combined + erlotinib
[11] = HRG high and EGFR wild type, 9 mg/kg patritumab + erlotinib
[12] = HRG high and EGFR wild type, 18 mg/kg patritumab + erlotinib
[13] = HRG high and EGFR wild type, patritumab doses combined + erlotinib
[14] = HRG low, 9 mg/kg patritumab + erlotinib
[15] = HRG low, 18 mg/kg patritumab + erlotinib
[16] = HRG low, patritumab doses combined + erlotinib

patritumab + erlotinib: combination of 150 mg erlotinib daily and anti-HER3 antibody patritumab IV every 3 weeks (18 mg/kg, or 18 mg/kg loading with 9 mg/kg maintenance)
response (Stage IIIb/IV NSCLC [1]; Phase 1b, 7 subjects): No response was recorded
grade of reported AEs (Stage IIIb/IV NSCLC [1]; in vivo): Most reported AEs were grade 1 or 2
patritumab-related AE: decreased appetite (Stage IIIb/IV NSCLC [1]; in vivo): 2 subjects
serious AEs (Stage IIIb/IV NSCLC [1]; in vivo): Three subjects had four serious AEs
HR (pooled dose vs placebo) for PFS in the HRG high group (Stage IIIb/IV NSCLC [2]; Cut-off for delta Ct 2.7 (first quartile)): 0.180
HR (pooled dose vs placebo) for PFS in the HRG high group (Stage IIIb/IV NSCLC [2]; Cut-off for delta Ct 3.0): 0.177
HR (pooled dose vs placebo) for PFS in the HRG high group (Stage IIIb/IV NSCLC [2]; Cut-off for delta Ct 3.5): 0.283
HR (pooled dose vs placebo) for PFS in the HRG high group (Stage IIIb/IV NSCLC [2]; Cut-off for delta Ct 3.9 (median)): 0.324
HR (pooled dose vs placebo) for PFS in the HRG high group (Stage IIIb/IV NSCLC [2]; Cut-off for delta Ct 4.5): 0.490
HR (pooled dose vs placebo) for PFS in the HRG high group (Stage IIIb/IV NSCLC [2]; Cut-off for delta Ct 5.0 (third quartile)): 0.561
On-Study Death (Stage IIIb/IV NSCLC [2]; 9 mg/kg patritumab + erlotinib): 9 (12.5%) subjects (%)
Primary Cause of On-Study Death: Adverse Event (Stage IIIb/IV NSCLC [2]; 9 mg/kg patritumab + erlotinib): 4 (5.6%) subjects (%)
Primary Cause of On-Study Death: Disease Progression (Stage IIIb/IV NSCLC [2]; 9 mg/kg patritumab + erlotinib): 4 (5.6%) subjects (%)
Primary Reason for Discontinuing Study Treatment: Death (Stage IIIb/IV NSCLC [2]; 9 mg/kg patritumab + erlotinib): 2 (2.8%) subjects (%)
Primary Reason for Discontinuing Study Treatment: Progressive Disease (Radiographic Progression) (Stage IIIb/IV NSCLC [2]; 9 mg/kg patritumab + erlotinib): 45 (62.5%) subjects (%)
On-Study Death (Stage IIIb/IV NSCLC [2]; [3]): 20 (27.8%) subjects (%)
Primary Cause of On-Study Death: Adverse Event (Stage IIIb/IV NSCLC [2]; [3]): 11 (15.3%) subjects (%)
Primary Cause of On-Study Death: Disease Progression (Stage IIIb/IV NSCLC [2]; [3]): 8 (11.1%) subjects (%)
Primary Reason for Discontinuing Study Treatment: Death (Stage IIIb/IV NSCLC [2]; [3]): 11 (15.3%) subjects (%)
Primary Reason for Discontinuing Study Treatment: Progressive Disease (Radiographic Progression) (Stage IIIb/IV NSCLC [2]; [3]): 42 (58.3%) subjects (%)
Subjects (%) with events, OS (Stage IIIb/IV NSCLC [2]; [4]): 46 (64.8%) subjects (%)
Subjects (%) with events, PFS (Stage IIIb/IV NSCLC [2]; [4]): 52 (73.2%) subjects (%)
Subjects (%) with events, OS (Stage IIIb/IV NSCLC [2]; [5]): 54 (77.1%) subjects (%)
Subjects (%) with events, PFS (Stage IIIb/IV NSCLC [2]; [5]): 58 (82.9%) subjects (%)
Overall Survival, time to event, Median (Stage IIIb/IV NSCLC [2]; [6]): 6.3 months
Progression-Free Survival, time to event, Median (Stage IIIb/IV NSCLC [2]; [6]): 2.5 months
Overall Survival, time to event, Median (Stage IIIb/IV NSCLC [2]; [7]): 5.3 months
Progression-Free Survival, time to event, Median (Stage IIIb/IV NSCLC [2]; [7]): 1.4 months
number of subjects with the response being CP/PR (Stage IIIb/IV NSCLC [2]; Full Analysis Set, high-dose patritumab + erlotinib): 5 (7.1%) subjects (%)
number of subjects with the response being CP/PR (Stage IIIb/IV NSCLC [2]; Full Analysis Set, low-dose patritumab + erlotinib): 9 (12.9%) subjects (%)
OS Rate at 1 Year (%) (Stage IIIb/IV NSCLC [2]; [8]): 49.2%
OS Rate at 6 Months (%) (Stage IIIb/IV NSCLC [2]; [8]): 68.8%
OS Rate at 9 Months (%) (Stage IIIb/IV NSCLC [2]; [8]): 56.3%
PFS Rate at 8 Weeks (%) (Stage IIIb/IV NSCLC [2]; [8]): 67.7%
PFS Rate at 14 Weeks (%) (Stage IIIb/IV NSCLC [2]; [8]): 33.9%
PFS Rate at 26 Weeks (%) (Stage IIIb/IV NSCLC [2]; [8]): 20.3%
Progression-Free Survival, time to event, Median (Stage IIIb/IV NSCLC [2]; [8]): 3.0 months
Subjects (%) with events, OS (Stage IIIb/IV NSCLC [2]; [8]): 9 (56.3%) subjects (%)
Subjects (%) with events, PFS (Stage IIIb/IV NSCLC [2]; [8]): 12 (75.0%) subjects (%)
OS Rate at 1 Year (%) (Stage IIIb/IV NSCLC [2]; [9]): 22.2%
OS Rate at 6 Months (%) (Stage IIIb/IV NSCLC [2]; [9]): 50.7%
OS Rate at 9 Months (%) (Stage IIIb/IV NSCLC [2]; [9]): 44.3%
PFS Rate at 8 Weeks (%) (Stage IIIb/IV NSCLC [2]; [9]): 56.3%
PFS Rate at 14 Weeks (%) (Stage IIIb/IV NSCLC [2]; [9]): 50.0%
PFS Rate at 26 Weeks (%) (Stage IIIb/IV NSCLC [2]; [9]): 15.6%
Progression-Free Survival, time to event, Median (Stage IIIb/IV NSCLC [2]; [9]): 3.4 months
Subjects (%) with events, OS (Stage IIIb/IV NSCLC [2]; [9]): 12 (70.6%) subjects (%)
Subjects (%) with events, PFS (Stage IIIb/IV NSCLC [2]; [9]): 13 (76.5%) subjects (%)
OS Rate at 1 Year (%) (Stage IIIb/IV NSCLC [2]; [10]): 35.8%
OS Rate at 6 Months (%) (Stage IIIb/IV NSCLC [2]; [10]): 59.6%
OS Rate at 9 Months (%) (Stage IIIb/IV NSCLC [2]; [10]): 50.2%
PFS Rate at 8 Weeks (%) (Stage IIIb/IV NSCLC [2]; [10]): 62.1%
PFS Rate at 14 Weeks (%) (Stage IIIb/IV NSCLC [2]; [10]): 42.5%
PFS Rate at 26 Weeks (%) (Stage IIIb/IV NSCLC [2]; [10]): 18.4%
Progression-Free Survival, time to event, Median (Stage IIIb/IV NSCLC [2]; [10]): 3.0 months
Subjects (%) with events, OS (Stage IIIb/IV NSCLC [2]; [10]): 21 (63.6%) subjects (%)
Subjects (%) with events, PFS (Stage IIIb/IV NSCLC [2]; [10]): 25 (75.8%) subjects (%)
Overall Survival, time to event, Median (Stage IIIb/IV NSCLC [2]; HRG high (dCt<3.9), preliminary, 9 mg/kg patritumab + erlotinib): 10.6 months
Overall Survival, time to event, Median (Stage IIIb/IV NSCLC [2]; HRG high (dCt<3.9), preliminary, 18 mg/kg patritumab + erlotinib): 6.1 months
Overall Survival, time to event, Median (Stage IIIb/IV NSCLC [2]; HRG high (dCt<3.9), preliminary, patritumab doses combined + erlotinib): 9.7 months
Progression-Free Survival, time to event, Median (Stage IIIb/IV NSCLC [2]; [11]): 2.8 months
Subjects (%) with events, PFS (Stage IIIb/IV NSCLC [2]; [11]): 6 ( 85.7%) subjects (%)
Progression-Free Survival, time to event, Median (Stage IIIb/IV NSCLC [2]; [12]): 2.8 months
Subjects (%) with events, PFS (Stage IIIb/IV NSCLC [2]; [12]): 5 (100.0%) subjects (%)
Progression-Free Survival, time to event, Median (Stage IIIb/IV NSCLC [2]; [13]): 2.8 months
Subjects (%) with events, PFS (Stage IIIb/IV NSCLC [2]; [13]): 11 (91.7%) subjects (%)
disease control rate (Stage IIIb/IV NSCLC [2]; 9 mg/kg patritumab plus erlotinib): 62.5%
disease control rate (Stage IIIb/IV NSCLC [2]; 18 mg/kg patritumab plus erlotinib): 52.9%
objective response (CR or PR) (Stage IIIb/IV NSCLC [2]; high-dose patritumab + erlotinib): No subject
objective response (CR or PR) (Stage IIIb/IV NSCLC [2]; low-dose patritumab + erlotinib): 4 (25.0%) subjects (%)
Overall Survival, time to event, Median (Stage IIIb/IV NSCLC [2]; [14]): 6.3 months
Progression-Free Survival, time to event, Median (Stage IIIb/IV NSCLC [2]; [14]): 2.1 months
Subjects (%) with events, OS (Stage IIIb/IV NSCLC [2]; [14]): 10 ( 66.7%) subjects (%)
Subjects (%) with events, PFS (Stage IIIb/IV NSCLC [2]; [14]): 12 ( 80.0%) subjects (%)
Overall Survival, time to event, Median (Stage IIIb/IV NSCLC [2]; [15]): 9.6 months
Progression-Free Survival, time to event, Median (Stage IIIb/IV NSCLC [2]; [15]): 1.4 months
Subjects (%) with events, OS (Stage IIIb/IV NSCLC [2]; [15]): 12 ( 63.2%) subjects (%)
Subjects (%) with events, PFS (Stage IIIb/IV NSCLC [2]; [15]): 13 ( 68.4%) subjects (%)
Overall Survival, time to event, Median (Stage IIIb/IV NSCLC [2]; [16]): 9.3 months
Progression-Free Survival, time to event, Median (Stage IIIb/IV NSCLC [2]; [16]): 1.9 months
Subjects (%) with events, OS (Stage IIIb/IV NSCLC [2]; [16]): 22 ( 64.7%) subjects (%)
Subjects (%) with events, PFS (Stage IIIb/IV NSCLC [2]; [16]): 25 ( 73.5%) subjects (%)
improvement in PFS or OS as compared to erlotinib plus placebo (Stage IIIb/IV NSCLC [2]; full analysis set): no significant improvement in PFS or OS
treatment difference in PFS and OS (Stage IIIb/IV NSCLC [2]; subjects with tumors expressing low levels of HRG (dCt>3.9)): no clear treatment difference in PFS and OS
